Assay results as given in PubChem BioAssay (NCI).
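Tested at 5 concentrations; 48 h exposure; 96-well plates; endpoints linearly interpolated, else capped at highest concentration. TGI denotes the concentration required for complete inhibition of growth.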

Key:
Experiment in all cases: growth of human tumour cells (NCI), 48 h
A498 renal = system: A498 renal
A549 NSCLC = system: A549 NSCLC
ACHN renal = system: ACHN renal
CCRF-CEM leukemia = system: CCRF-CEM leukemia
DMS 114 small cell lung = system: DMS 114 small cell lung
DMS 273 small cell lung = system: DMS 273 small cell lung
HCT-116 colon = system: HCT-116 colon
HCT-15 colon = system: HCT-15 colon
HL-60(TB) leukemia = system: HL-60(TB) leukemia
HOP-18 NSCLC = system: HOP-18 NSCLC
HT29 colon = system: HT29 colon
IGROV1 ovarian = system: IGROV1 ovarian
K-562 leukemia = system: K-562 leukemia
KM12 colon = system: KM12 colon
LOX IMVI melanoma = system: LOX IMVI melanoma
LXFL 529 NSCLC = system: LXFL 529 NSCLC
M14 melanoma = system: M14 melanoma
M19-MEL melanoma = system: M19-MEL melanoma
MALME-3M melanoma = system: MALME-3M melanoma
MOLT-4 leukemia = system: MOLT-4 leukemia
NCI-H226 lung = system: NCI-H226 lung
NCI-H23 lung = system: NCI-H23 lung
NCI-H460 lung = system: NCI-H460 lung
OVCAR-3 ovarian = system: OVCAR-3 ovarian
OVCAR-4 ovarian = system: OVCAR-4 ovarian
OVCAR-8 ovarian = system: OVCAR-8 ovarian
RXF 393 renal = system: RXF 393 renal
SF-268 CNS = system: SF-268 CNS
SF-295 CNS = system: SF-295 CNS
SF-539 CNS = system: SF-539 CNS
SK-MEL-2 melanoma = system: SK-MEL-2 melanoma
SK-MEL-28 melanoma = system: SK-MEL-28 melanoma
SK-MEL-5 melanoma = system: SK-MEL-5 melanoma
SN12C renal = system: SN12C renal
SNB-75 CNS = system: SNB-75 CNS
SNB-78 CNS = system: SNB-78 CNS
SW-620 colon = system: SW-620 colon
TK-10 renal = system: TK-10 renal
UACC-257 melanoma = system: UACC-257 melanoma
UACC-62 melanoma = system: UACC-62 melanoma
786-0 renal = system: 786-0 renal
CAKI-1 renal = system: CAKI-1 renal
COLO 205 colon = system: COLO 205 colon
DLD-1 colon = system: DLD-1 colon
EKVX NSCLC = system: EKVX NSCLC
HCC-2998 colon = system: HCC-2998 colon
HOP-62 NSCLC = system: HOP-62 NSCLC
HOP-92 NSCLC = system: HOP-92 NSCLC
KM20L2 colon = system: KM20L2 colon
NCI-H522 lung = system: NCI-H522 lung
OVCAR-5 ovarian = system: OVCAR-5 ovarian
RPMI-8226 leukemia = system: RPMI-8226 leukemia
SK-OV-3 ovarian = system: SK-OV-3 ovarian
SNB-19 CNS = system: SNB-19 CNS
U251 CNS = system: U251 CNS
UO-31 renal = system: UO-31 renal

Measured: TGI

CC1(C)OC(COP2OCCO2)[C@H](COP2OCCO2)O1 (stereo partly specified)
not listed: 786-0 renal | CAKI-1 renal | COLO 205 colon | DLD-1 colon | EKVX NSCLC | HCC-2998 colon | HOP-62 NSCLC | HOP-92 NSCLC | KM20L2 colon | NCI-H522 lung | OVCAR-5 ovarian | RPMI-8226 leukemia | SK-OV-3 ovarian | SNB-19 CNS | U251 CNS | UO-31 renal
> 100 µM: all other assays above

CCOc1ccc(/C=C/C(=O)c2sc(NNC(C)=O)nc2C)cc1
not listed: HCT-116 colon | LXFL 529 NSCLC | M14 melanoma | NCI-H226 lung | OVCAR-4 ovarian
> 100 µM: all other assays above
